Reference: patent US20070160531A1 (priority 1995, published 2007)

Test system: Rat Lung
Conditions: in vivo, iv

## ^3H-daunomycin
  % in lung (total drug in the lung as a percentage of the original dose): 0.65%
  % inj/g tissue: 0.63 % inj/g
